Series [1] concerns G544V-mutant LDL receptor. In words: Cell-based trafficking assay: restoration of glycosylation/trafficking of mutant LDL receptor in CHO cells. The following applies: for EC50: CHO cells expressing G544V-mutant LDL receptor, 2 hours at 37° C., value ± standard error, read-out: EC50, acquisition of mutant LDL receptor glycosylation. Details: species or system human. Here is the method: (§1) T-Rex-CHO-K1 cloned cell lines expressing wild-type and mutant LDL receptor were cultured as described in Sorensen et al. (2006) and Tveten et al. (2007), and according to the manufacturer's protocols (Thermo Fisher Scientific). The expression in CHO cells of G544V-mutant or wildtype LDL receptor protein was induced with 1 μg/mL tetracycline for 24 h prior to experiments with 4-PBA or 4-PBA analogs (Tveten et al. (2007)). To compare pharmacological potency of 4-PBA analogs, cells were incubated with the compounds for 2 hours at 37° C. in 12-well 22 mm plates (Corning Costar #3513). For experiments concerning the extracellular secretion of GRP94 (FIG. 5), the incubations with 4-PBA were extended to 24 hours. Cells were broken in lysis buffer (1% (v/v) Triton X-100, 150 mM NaCl, 10 mM EDTA, 50 mM Tris-HCl pH 7.5) and cleared by centrifugation (15,000 g for 15 minutes). Cellular protein concentration was measured using “Protein Assay Kit II” (Bio-Rad) with bovine serum albumin as standard. Lysates were added to Laemmli sample buffer (New England BioLabs) containing 130 mM dithiothreitol and heated for 15 min at 55° C. Cell medium (containing secreted proteins) was added to Laemmli sample buffer containing 5% β-mercaptoethanol and boiled for 5 min. Samples were run on 4-15% Tris/HCl Criterion gels (Bio-Rad) followed by immunoblotting.
Chemiluminescence signals from western blots for the glycosylated (160 kDa) form of G544V mutant LDL receptor were quantified as a percentage of total LDL receptor protein (glycosylated+unglycosylated bands). Data at high concentrations of 4-PBA analogs, which show inhibition of LDL receptor trafficking, were omitted. Data from individual experiments were normalized (to obtain maximal response=100%), so that data from replicate experiments (n=4-5) could be averaged. Logistic fitting to the dose-response data was carried out with program Ultrafit (Elsevier Biosoft). […] Data from fluorescence polarization titrations (FIGS. 6(E)-6(G)) were analyzed with Ultrafit, and IC50 values were determined from plots using nonlinear curve fitting. […] IC50 values were converted to true affinities, Ki, using the approach of (Nikolovska-Coleska et al., 2004), and these are used in the scatter plot, FIG. 6(H).
A system comprising a CHO (T-Rex-CHO-K1) cell clone expressing the G544V-mutant human LDL receptor under a tetracycline-inducible promoter was used (see General Methods) to measure the packaging of resident proteins and a misfolded mutant LDL receptor into COPII vesicles budded from permeabilized cells. The G544V-mutant human LDL receptor is a naturally occurring transport-defective (class 2) mutant LDL receptor with a point mutation in the luminal β-propeller domain that causes ER trapping with chaperone association. 4-PBA has been show to restore transportation of G544V-mutant human LDL receptor to the plasma membrane (Tveten et al. (2007)).
CHO cells expressing G544V-mutant LDL receptor were incubated with the indicated concentrations of 4-PBA analogs for 2 hours at 37° C. Cell lysates were analyzed by immunoblotting for the appearance of 160 kDa mature glycosylated LDL receptor (labeling indicates the position of 160 kDa mature glycosylated and 120 kDa precursor forms of LDL receptor). Gamma correction was applied to the immunoblot images.

The target of series [2] is T1, human Sec24a (Homo sapiens, UniProt O95486).
T1 construct: His6 (TEV-cleavable) (N, cleaved yes); made in house; host or cells: High Five insect cells (baculovirus)
T1 sequence (O95486 341-1093): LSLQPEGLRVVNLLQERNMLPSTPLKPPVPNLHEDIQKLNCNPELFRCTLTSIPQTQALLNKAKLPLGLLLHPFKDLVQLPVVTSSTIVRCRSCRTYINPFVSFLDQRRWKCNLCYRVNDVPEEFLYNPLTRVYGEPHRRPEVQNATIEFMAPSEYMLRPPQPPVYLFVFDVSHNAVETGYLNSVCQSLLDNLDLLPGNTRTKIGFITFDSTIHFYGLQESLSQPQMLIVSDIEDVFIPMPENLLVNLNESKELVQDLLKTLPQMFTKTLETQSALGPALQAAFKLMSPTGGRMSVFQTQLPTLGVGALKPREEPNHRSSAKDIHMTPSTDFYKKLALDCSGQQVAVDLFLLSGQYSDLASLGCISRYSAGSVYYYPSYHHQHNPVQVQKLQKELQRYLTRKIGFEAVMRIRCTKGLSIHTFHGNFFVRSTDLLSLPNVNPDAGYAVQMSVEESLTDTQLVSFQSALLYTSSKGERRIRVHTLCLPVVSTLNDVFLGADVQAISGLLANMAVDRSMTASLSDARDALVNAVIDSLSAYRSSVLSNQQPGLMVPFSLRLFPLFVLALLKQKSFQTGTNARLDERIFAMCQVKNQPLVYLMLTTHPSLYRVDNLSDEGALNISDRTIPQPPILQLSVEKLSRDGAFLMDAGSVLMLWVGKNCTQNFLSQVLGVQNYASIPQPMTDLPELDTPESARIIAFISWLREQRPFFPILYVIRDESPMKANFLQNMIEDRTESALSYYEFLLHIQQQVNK
The series can be described thus: Fluorescence polarization assay: displacement of 5-Fam-[…] from Sec24a. Format: binding. The following applies: fluorescence polarization at 22° C.; value ± standard error; read-out: IC50, displacement of fluorescent probe 5-Fam-QIYTDIEANR from Sec24a. A general note: Polarisation of emitted light reports the rotation of a fluorescent probe.

Series [3] deals with T2, Sec23a/Sec24a⋅Sec22b (Homo sapiens, UniProt O95486).
T2 construct: His6 (TEV-cleavable) (N, cleaved yes); made in house; host or cells: High Five insect cells (Sec23a/Sec24a); E. coli (Sec22b)
In words: Crystal soaking and X-ray difference Fourier maps. Format: binding. The following applies: crystals soaked at 1, 15 and 50 mM 4-PBA. The protocol: The Sec23a/Sec24a⋅Sec22b complex was crystallized as described in Mancias and Goldberg (2007) from a solution comprising 10% (w/v) PEG 4000, 500 mM Na acetate and 50 mM Tris-HCl pH 7.9. Crystals were transferred into a soaking buffer of 10% (w/v) PEG 4000, 600 mM NaCl, 50 mM Tris-HCl buffer, pH 7.9. Either 4-PBA (0-50 mM) or 5 mM ΦC signal peptide was added to the crystal containing solution, and the ligand soaking proceeded for five hours at 22° C. Crystals were then transferred to an equivalent ligand-containing buffer with additional 24% ethylene glycol cryo-protectant, and were flash frozen in liquid nitrogen. Crystals treated in this manner diffracted synchrotron X-rays to 2.5-2.8 Å resolution.
X-ray diffraction data were collected at 0.979 Å wavelength on beamline ID-24C or ID-24E of the Advanced Photon Source, Argonne National Laboratory. Data were processed with the program HKL2000 (Otwinowski and Minor (1997); see Tables 1 and 2). Structure refinement was carried out using Phenix (Adams et al. (2010)), initially by rigid-body improvement, followed by positional refinement, based on the published coordinates of Sec23a/Sec24a⋅Sec22b (PDB 2NUT; Mancias and Goldberg (2007)). Models for […] signal peptides or 4-PBA were not included in refinements prior to the creation of FIG. 1, to eliminate potential phase bias. […]

Series [4] has as its system GRP94. Format: cell-based. The protocol:
as §1
[…] The presence of KDEL tagged (SEQ ID NO: 3) luminal chaperone GRP94 inside and outside cells was measured.

For series [5], the target named is T3, COPII coat proteins (Sec23a/24d) (Homo sapiens, UniProt O94855).
T3 construct: Sec23a/Sec24d (full-length protein) for COPII budding assays; made in house; host or cells: High Five insect cells (Sec23a/24d, Sec13a/31a); E. coli BL21(DE3) (Sar1a); added to digitonin-permeabilized T-Rex-CHO-K1 cells
In words: In vitro COPII budding assay with permeabilized CHO cells. Format: biochemical, H. sapiens. The following applies: 10 mM 4-PBA. The protocol: In vitro COPII budding reactions used permeabilized cells prepared from the T-Rex-CHO-K1 parent line and from the clone that expresses mutant LDL receptor. Permeabilization was carried out as described in Mancias and Goldberg (2008) with modifications. Two culture dishes (150 mm) of cells were prepared with cells at no greater than 60% confluence. Cells were washed with 20 ml PBS at 37° C. and then trypsinized with 2 ml of Trypsin-EDTA (0.05%, Gibco) for 1 min at 37° C.; 100 μl of Soybean Trypsin Inhibitor (2 mg/ml; Sigma) was added to each culture plate. Next, 5.5 ml ice-cold KHM buffer (110 mM KOAc, 20 mM Hepes pH 7.2, 2 mM magnesium acetate) was added per plate, and cells were transferred to a 15 ml Falcon tube and pelleted gently (250 g for 3 min at 4° C.). The supernatant was aspirated and the cells re-suspended in 6 ml ice-cold KHM buffer. To permeabilize the cells, 6 μl digitonin stock solution (40 mg/ml in dimethyl sulfoxide) was added, cells were mixed by inversion and incubated on ice for 5 minutes. To terminate permeabilization, cells were diluted to 14 ml with KHM buffer and immediately pelleted at 250 g for 3 min at 4° C. […] The protein concentration was measured using protein assay kit (Bio-Rad) with BSA as standard; routinely, the measurement is in the range 4-5 mg/ml. […]

“And” between values parts separate entries of the source, which are not always exact repeats. Equal values may be shown once. Where only a bound is given, the exact number is not on record here.

T3 sequence (O94855 whole entry): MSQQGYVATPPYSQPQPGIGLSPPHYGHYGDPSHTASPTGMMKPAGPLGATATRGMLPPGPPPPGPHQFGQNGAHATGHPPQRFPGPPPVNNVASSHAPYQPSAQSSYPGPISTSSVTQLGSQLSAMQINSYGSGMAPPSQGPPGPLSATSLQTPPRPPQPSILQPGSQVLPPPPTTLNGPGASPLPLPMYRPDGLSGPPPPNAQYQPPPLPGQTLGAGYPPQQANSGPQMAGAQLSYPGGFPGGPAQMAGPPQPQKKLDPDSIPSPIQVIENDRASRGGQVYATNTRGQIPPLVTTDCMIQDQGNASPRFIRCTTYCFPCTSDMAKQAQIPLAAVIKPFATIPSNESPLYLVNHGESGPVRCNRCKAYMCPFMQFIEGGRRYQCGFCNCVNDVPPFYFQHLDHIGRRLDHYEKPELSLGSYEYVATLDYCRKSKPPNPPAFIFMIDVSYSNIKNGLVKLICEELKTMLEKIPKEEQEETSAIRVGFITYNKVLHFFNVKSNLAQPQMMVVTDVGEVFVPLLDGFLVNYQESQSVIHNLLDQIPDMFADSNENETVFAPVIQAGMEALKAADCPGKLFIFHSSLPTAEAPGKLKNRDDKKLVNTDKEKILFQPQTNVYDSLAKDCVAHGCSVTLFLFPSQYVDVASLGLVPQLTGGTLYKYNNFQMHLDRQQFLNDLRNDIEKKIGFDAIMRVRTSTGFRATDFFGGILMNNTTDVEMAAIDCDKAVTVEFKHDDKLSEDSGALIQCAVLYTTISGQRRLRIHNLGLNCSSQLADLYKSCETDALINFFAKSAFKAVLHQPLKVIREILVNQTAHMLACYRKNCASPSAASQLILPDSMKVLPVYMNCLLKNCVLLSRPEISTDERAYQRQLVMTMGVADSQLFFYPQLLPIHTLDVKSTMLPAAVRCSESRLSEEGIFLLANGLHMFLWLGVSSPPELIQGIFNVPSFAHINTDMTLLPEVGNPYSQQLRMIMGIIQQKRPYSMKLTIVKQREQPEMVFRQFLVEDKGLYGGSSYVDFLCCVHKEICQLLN
T3 sequence (Q15436 whole entry partner): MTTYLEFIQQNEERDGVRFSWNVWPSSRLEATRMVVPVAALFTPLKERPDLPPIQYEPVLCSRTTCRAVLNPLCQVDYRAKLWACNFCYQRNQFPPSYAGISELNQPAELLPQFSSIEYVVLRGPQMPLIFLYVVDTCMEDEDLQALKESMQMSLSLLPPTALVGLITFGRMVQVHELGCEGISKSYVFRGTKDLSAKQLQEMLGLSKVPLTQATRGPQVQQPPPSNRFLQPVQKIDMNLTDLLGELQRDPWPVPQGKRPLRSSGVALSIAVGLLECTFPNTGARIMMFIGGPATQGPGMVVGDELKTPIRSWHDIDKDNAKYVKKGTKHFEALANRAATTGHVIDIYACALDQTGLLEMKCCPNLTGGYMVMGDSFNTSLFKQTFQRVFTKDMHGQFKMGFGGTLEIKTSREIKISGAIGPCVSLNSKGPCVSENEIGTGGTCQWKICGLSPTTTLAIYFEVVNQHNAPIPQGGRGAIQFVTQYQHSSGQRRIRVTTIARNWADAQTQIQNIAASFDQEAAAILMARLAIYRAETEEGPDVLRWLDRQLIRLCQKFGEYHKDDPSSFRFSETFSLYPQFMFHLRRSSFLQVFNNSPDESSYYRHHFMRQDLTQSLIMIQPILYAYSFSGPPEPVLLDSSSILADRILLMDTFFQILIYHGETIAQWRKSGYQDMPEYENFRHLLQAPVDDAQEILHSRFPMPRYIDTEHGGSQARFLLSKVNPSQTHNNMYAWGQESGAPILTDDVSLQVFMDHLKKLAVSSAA
T2 sequence (Q15436 whole entry partner, one chain of several): as the sequence (Q15436 whole entry partner) above
T2 sequence (O75396 1-195 partner limits assumed, one chain of several): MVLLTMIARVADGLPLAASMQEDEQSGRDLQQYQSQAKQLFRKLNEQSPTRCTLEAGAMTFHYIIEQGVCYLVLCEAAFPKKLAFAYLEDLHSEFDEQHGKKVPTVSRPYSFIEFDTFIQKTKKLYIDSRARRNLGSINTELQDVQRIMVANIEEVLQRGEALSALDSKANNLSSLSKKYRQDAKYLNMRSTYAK

Regarding `O=C(O)CCc1ccccc1` [3-PPA, 3-phenylpropionate], the EC50 (as a rule, the midpoint of the concentration-response curve) in series [1] worked out at 7.48 ± 0.68 mM. In series [2], the IC50 (commonly the midpoint of a concentration-inhibition curve) was 4.11 ± 0.34 mM.
On to `O=C(O)CCCc1ccccc1` [4-PBA, 4-phenylbutyrate], for which the “binding to the B site of Sec24a” value in series [3] is reported as “clear evidence for binding”. In addition, the “restored trafficking of mutant LDL receptor (share of the receptor)” value in series [1] (10 mM 4-PBA applied to cells) is no more than 25%. The EC50 in series [1] was 6.37 mM and 6.4 mM. Moreover, in series [4] (0-40 mM 4-PBA, 24 hours), the “secretion of GRP94 from CHO cells” value is reported as “dose-dependent”. Further, the cell lysis result in series [4] (45 mM 4-PBA, highest concentration) was “cell lysis was detected”. In addition, the “4-PBA concentration of maximal GRP94 secretion” value in series [4] (24 hours at 37° C., ER stressed and ER unstressed CHO cells) came out at 20 mM. Besides, the “4-PBA concentration at which unfolded protein response (UPR) was attenuated” value in series [4] (CHO cells expressing G544V-mutant LDL receptor, 24 hours at 37° C.) is 10 to 20 mM. Also, in series [5], the “packaging of ER residents and mutant LDL receptor into COPII vesicles” value is given as “significant enrichment”; the “reduction in the packaging rate of p24 proteins and ERGIC-53” value is recorded as 50%. In series [2], the IC50 turned out to be 3.66 ± 0.22 mM.
In the case of `O=C(O)CCCCc1ccccc1` [5-PVA, 5-phenylvalerate], the EC50 in series [1] was found to be 3.36 ± 0.42 mM. Besides, in series [2], the IC50 was found to be 0.99 ± 0.08 mM.
With `O=C(O)CCCc1ccc(O)cc1` [Hydroxy-PBA, 4-(4-hydroxyphenyl)butyrate], in series [1], the EC50 came to 10.6 ± 0.4 mM. Further, the IC50 in series [2] came to 5.04 ± 0.69 mM.
The like results for `O=C(O)CCc1ccc(O)cc1` [Hydroxy-PPA, 3-(4-hydroxyphenyl)propionate] were, in that order, 21.7 ± 1.03 mM and 9.22 ± 0.94 mM.
In the same order, the values of `COc1ccc(CCCC(=O)O)cc1` [Methoxy-PBA, 4-(4-methoxyphenyl)butyrate] are 8.63 ± 0.98 mM and 4.14 ± 0.7 mM.
In the same order, the values of `Cc1ccc(CCCC(=O)O)cc1` [Tolyl-BA, 4-(4-tolyl)butyrate] are 4.89 ± 0.24 mM and 1.7 ± 0.16 mM.

The values above are taken from patent publication US11433040B2, “Methods for modifying endoplasmic reticulum processing of protein” (priority 2017, dated 2022).
